Settings: Cohort 3 400 mg QD
Experimental: All responses were assessed by the investigators.
Reported Adverse Events. […] All-cause mortality data collected during the study were assessed for all enrolled participants. Disease progression related death was not reported as AE.
Number of Participants With Treatment-emergent Adverse Events (TEAEs), and Treatment-emergent Serious Adverse Events (TESAEs). […] TEAEs included both SAEs and non-SAEs. […] Analysis was performed on safety population which included all participants who received at least 1 dose of study medication.

CC(C)NC(=O)COc1cccc(-c2nc(Nc3ccc4[nH]ncc4c3)c3ccccc3n2)c1 [Belumosudil, 2-{3-[4-(1H-indazol-5-ylamino)-2-quinazolinyl]phenoxy}-N-(propan-2-yl) acetamide]
1: SAE Abdominal wall haematoma, # events | SAE Acute lymphocytic leukaemia recurrent, # events | SAE Cardiac arrest, # events | SAE Febrile neutropenia, # events | SAE Graft versus host disease in lung, # events | SAE Leukaemia recurrent, # events | SAE Myelodysplastic syndrome, # events | SAE Pericardial effusion, # events | SAE Pleural effusion, # events | SAE Pneumonia viral, # events | SAE Pregnancy of partner, # events | SAE Small intestinal obstruction, # events | SAE Urinary retention, # events | SAE Varicella zoster virus infection, # events | Sinusitis: # Events | Stomatitis: # Events | Thrombocytopenia: # Events
(9.52%): Respiratory syncytial virus infection: Affected/At Risk (%) | Skin abrasion: Affected/At Risk (%) | Tachycardia: Affected/At Risk (%)
1/21: SAE Abdominal wall haematoma, affected/at risk | SAE Acute lymphocytic leukaemia recurrent, affected/at risk | SAE Cardiac arrest, affected/at risk | SAE Febrile neutropenia, affected/at risk | SAE Graft versus host disease in lung, affected/at risk | SAE Leukaemia recurrent, affected/at risk | SAE Myelodysplastic syndrome, affected/at risk | SAE Pericardial effusion, affected/at risk | SAE Pleural effusion, affected/at risk | SAE Pneumonia viral, affected/at risk | SAE Pregnancy of partner, affected/at risk | SAE Small intestinal obstruction, affected/at risk | SAE Urinary retention, affected/at risk | SAE Varicella zoster virus infection, affected/at risk | Sinusitis: Affected/At Risk | Stomatitis: Affected/At Risk | Thrombocytopenia: Affected/At Risk
2/21: Respiratory syncytial virus infection: Affected/At Risk | SAE Hypoxia, affected/at risk | SAE Influenza like illness, affected/at risk | Skin abrasion: Affected/At Risk | Tachycardia: Affected/At Risk
0/21: Renal failure: Affected/At Risk | Respiratory tract infection fungal: Affected/At Risk | Respiratory tract infection: Affected/At Risk | Restless legs syndrome: Affected/At Risk | Rosacea: Affected/At Risk | SAE Acute kidney injury, affected/at risk | SAE Acute respiratory failure, affected/at risk | SAE Anaphylactic reaction, affected/at risk | SAE Bacteraemia, affected/at risk | SAE Cellulitis, affected/at risk | SAE Chronic graft versus host disease in skin, affected/at risk | SAE Citrobacter infection, affected/at risk | SAE Embolism, affected/at risk | SAE Influenza A virus test positive, affected/at risk | SAE Lacunar infarction, affected/at risk | SAE Lipomatosis, affected/at risk | SAE Metastases to meninges, affected/at risk | SAE Muscular weakness, affected/at risk | SAE Non-cardiac chest pain, affected/at risk | SAE Obliterative bronchiolitis, affected/at risk | SAE Proteinuria, affected/at risk | SAE Respirovirus test positive, affected/at risk | SAE Stenotrophomonas infection, affected/at risk | SAE Urinary tract infection, affected/at risk | Sinus pain: Affected/At Risk | Skin lesion: Affected/At Risk | Skin papilloma: Affected/At Risk | Spinal compression fracture: Affected/At Risk | Squamous cell carcinoma of skin: Affected/At Risk | Superior vena cava syndrome: Affected/At Risk | Tendonitis: Affected/At Risk | Testicular pain: Affected/At Risk | Testicular swelling: Affected/At Risk | Thoracic spinal stenosis: Affected/At Risk
(0%): Renal failure: Affected/At Risk (%) | Respiratory tract infection fungal: Affected/At Risk (%) | Respiratory tract infection: Affected/At Risk (%) | Restless legs syndrome: Affected/At Risk (%) | Rosacea: Affected/At Risk (%) | Sinus pain: Affected/At Risk (%) | Skin lesion: Affected/At Risk (%) | Skin papilloma: Affected/At Risk (%) | Spinal compression fracture: Affected/At Risk (%) | Squamous cell carcinoma of skin: Affected/At Risk (%) | Superior vena cava syndrome: Affected/At Risk (%) | Tendonitis: Affected/At Risk (%) | Testicular pain: Affected/At Risk (%) | Testicular swelling: Affected/At Risk (%) | Thoracic spinal stenosis: Affected/At Risk (%)
2: SAE Hypoxia, # events | SAE Influenza like illness, # events | Skin abrasion: # Events | Tachycardia: # Events
(4.76%): Sinusitis: Affected/At Risk (%) | Stomatitis: Affected/At Risk (%) | Thrombocytopenia: Affected/At Risk (%)
0: Respiratory tract infection fungal: # Events | Respiratory tract infection: # Events | Restless legs syndrome: # Events | Rosacea: # Events | SAE Acute kidney injury, # events | SAE Acute respiratory failure, # events | SAE Anaphylactic reaction, # events | SAE Bacteraemia, # events | SAE Cellulitis, # events | SAE Chronic graft versus host disease in skin, # events | SAE Citrobacter infection, # events | SAE Embolism, # events | SAE Influenza A virus test positive, # events | SAE Lacunar infarction, # events | SAE Lipomatosis, # events | SAE Metastases to meninges, # events | SAE Muscular weakness, # events | SAE Non-cardiac chest pain, # events | SAE Obliterative bronchiolitis, # events | SAE Proteinuria, # events | SAE Respirovirus test positive, # events | SAE Stenotrophomonas infection, # events | SAE Urinary tract infection, # events | Sinus pain: # Events | Skin lesion: # Events | Skin papilloma: # Events | Spinal compression fracture: # Events | Squamous cell carcinoma of skin: # Events | Superior vena cava syndrome: # Events | Tendonitis: # Events | Testicular pain: # Events | Testicular swelling: # Events | Thoracic spinal stenosis: # Events
13/21: SAE total, affected/at risk
3/21: SAE Dyspnoea, affected/at risk | SAE Pneumonia, affected/at risk
3: Respiratory syncytial virus infection: # Events | SAE Dyspnoea, # events | SAE Pneumonia, # events

— patent publication US20250255867A1 (Kadmon Corporation, LLC, priority 2022, published 2025)
